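Step 1: Grow cells in 96-well plates. Step 2: Expose to compound for 48 hours at 5 concentrations. Step 3: Interpolate endpoints linearly; if unreached, use highest concentration. Abbreviation: GI50, concentration required for 50% inhibition of growth.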 Active and inactive are the calls of the source. No stated cut-off is given here; in the data, active = GI50 up to about 1.1 µM and inactive = higher.
Columns and labels:
Test in all cases: NCI tumour cell line growth inhibition, 48 h
[1] = tested on: NCI-H460
[2] = tested on: MDA-N
[3] = tested on: SK-MEL-5
[4] = tested on: TK-10
[5] = tested on: SR
[6] = tested on: BT-549
[7] = tested on: ACHN
[8] = tested on: MCF7
[9] = tested on: T47D
[10] = tested on: HOP-92
[11] = tested on: CCRF-CEM
[12] = tested on: SK-MEL-28
[13] = tested on: SK-OV-3
[14] = tested on: SK-MEL-2
[15] = tested on: MDA-MB-435
[16] = tested on: OVCAR-5
[17] = tested on: A498
[18] = tested on: LOX IMVI
[19] = tested on: OVCAR-8
[20] = tested on: HCT-116

Row | Compound | GI50 [1] | GI50 [2] | GI50 [3] | GI50 [4] | GI50 [5] | GI50 [6] | GI50 [7] | GI50 [8] | GI50 [9] | GI50 [10] | GI50 [11] | GI50 [12] | GI50 [13] | GI50 [14] | GI50 [15] | GI50 [16] | GI50 [17] | GI50 [18] | GI50 [19] | GI50 [20]
1 | CC(=O)NC1C(OCc2ccccc2)OC(CO)C(O)C1OCC(=O)N[C@@H](C)C(=O)N[C@H](CCC(=O)NCCNCCNc1c2ccccc2nc2cccc([N+](=O)[O-])c12)C(N)=O (some centres undefined) | 15.1 µM (inactive) | 33.1 µM (inactive) | 17.8 µM (inactive) | 31.8 µM (inactive) | 18.1 µM (inactive) | > 10 µM (inactive) | 26.7 µM (inactive) | 37.9 µM (inactive) | 27.5 µM (inactive) | 20.7 µM (inactive) | 24 µM (inactive) | > 100 µM (inactive) | 78.5 µM (inactive) | 22.3 µM (inactive) | 29.6 µM (inactive) | 53.3 µM (inactive) | 19.8 µM (inactive) | 23.5 µM (inactive) | 27.4 µM (inactive) | 19.5 µM (inactive)
2 | CCC(CC)(CO)CNc1cc(Cl)nc(N)n1 | > 100 µM (inactive) | 89.5 µM (inactive) | 60.7 µM (inactive) | > 100 µM (inactive) | > 100 µM (inactive) | > 100 µM (inactive) | > 100 µM (inactive) | > 100 µM (inactive) | 45.6 µM (inactive) | 11.3 µM (inactive) | > 100 µM (inactive) | > 100 µM (inactive) | > 100 µM (inactive) | > 100 µM (inactive) | > 100 µM (inactive) | > 100 µM (inactive) | > 100 µM (inactive) | > 100 µM (inactive) | > 100 µM (inactive) | > 100 µM (inactive)
3 | CCCC(=O)Nc1cn(COC)c(C(=O)N2C[C@H]3C[C@@]34C2=CC(=O)c2[nH]cc(C)c24)n1 | 3.24 µM (inactive) | 9.16 µM (inactive) | 4.06 µM (inactive) | 10.1 µM (inactive) | 2.2 µM (inactive) | 9.2 µM (inactive) | 2.42 µM (inactive) | 1.32 µM (inactive) | 1.88 µM (inactive) | 8.05 µM (inactive) | 0.71 µM (active) | 12 µM (inactive) | 16.7 µM (inactive) | 14 µM (inactive) | 6.81 µM (inactive) | 12.4 µM (inactive) | 8.63 µM (inactive) | 7.14 µM (inactive) | 2.69 µM (inactive) | 4.68 µM (inactive)
4 | COc1c2ccsc2c(OC)c2ccsc12 | > 100 µM (inactive) | > 100 µM (inactive) | > 100 µM (inactive) | > 100 µM (inactive) | > 100 µM (inactive) | > 100 µM (inactive) | > 100 µM (inactive) | > 100 µM (inactive) | > 100 µM (inactive) | 39.4 µM (inactive) | > 100 µM (inactive) | > 100 µM (inactive) | > 100 µM (inactive) | > 100 µM (inactive) | > 100 µM (inactive) | > 100 µM (inactive) | > 100 µM (inactive) | > 100 µM (inactive) | > 100 µM (inactive) | > 100 µM (inactive)
5 | NC(=O)NC(=O)c1ccc(NC(=O)CBr)cc1 | 4.66 µM (inactive) | 2.07 µM (inactive) | 1.62 µM (inactive) | 1.31 µM (inactive) | 0.333 µM (active) | 2.1 µM (inactive) | 1.44 µM (inactive) | 1.76 µM (inactive) | 1.67 µM (inactive) | 1.6 µM (inactive) | 0.0769 µM (active) | 3.2 µM (inactive) | 3.27 µM (inactive) | 1.99 µM (inactive) | 1.53 µM (inactive) | 2.75 µM (inactive) | 14.3 µM (inactive) | 0.558 µM (active) | 2.26 µM (inactive) | 0.83 µM (active)
6 | CCn1nc2c3c(ncn3C(C)(C)O2)c1=O | > 100 µM (inactive) | > 100 µM (inactive) | > 100 µM (inactive) | > 100 µM (inactive) | > 100 µM (inactive) | > 100 µM (inactive) | > 100 µM (inactive) | > 100 µM (inactive) | > 100 µM (inactive) | > 100 µM (inactive) | > 100 µM (inactive) | > 100 µM (inactive) | > 100 µM (inactive) | > 100 µM (inactive) | > 100 µM (inactive) | > 100 µM (inactive) | > 100 µM (inactive) | > 100 µM (inactive) |  | > 100 µM (inactive)
7 | O=C1Nc2ccccc2/C1=C1/Nc2ccccc2/C1=N/OCCOCCO | 1.21 µM (inactive) | 3.24 µM (inactive) | 1.57 µM (inactive) | 1.86 µM (inactive) | 1.68 µM (inactive) | 2.38 µM (inactive) | 0.738 µM (active) | 1.99 µM (inactive) | 2.89 µM (inactive) | 13.8 µM (inactive) | 3.27 µM (inactive) | 5.05 µM (inactive) | 0.361 µM (active) | 0.644 µM (active) | 3.15 µM (inactive) | 4.62 µM (inactive) | 0.259 µM (active) | 0.869 µM (active) | 3.91 µM (inactive) | 0.582 µM (active)
8 | CC#Cc1cc2c(cc1O)CC[C@@H]1[C@@H]2CC[C@]2(C)[C@@H](O)CC[C@@H]12 | 0.475 µM (active) | 0.178 µM (active) | 0.484 µM (active) | 19.9 µM (inactive) | 0.288 µM (active) | 11.9 µM (inactive) | 6.17 µM (inactive) | 0.685 µM (active) | 3.15 µM (inactive) | 11.8 µM (inactive) | 0.684 µM (active) | 7.36 µM (inactive) | 1.81 µM (inactive) | 1.06 µM (active) | 0.134 µM (active) | 17.9 µM (inactive) | 5.28 µM (inactive) | 0.94 µM (active) | 2.09 µM (inactive) | 
9 | COc1ccc(/C=C/C(=N/NC(=O)N/N=C(/C=C/c2ccc(OC)cc2)C(C)C)C(C)C)cc1 | 48.3 µM (inactive) | > 100 µM (inactive) | 95.9 µM (inactive) | 50 µM (inactive) | > 100 µM (inactive) | > 100 µM (inactive) | 73.8 µM (inactive) | 64.6 µM (inactive) | 25.9 µM (inactive) | 66.7 µM (inactive) | 48.9 µM (inactive) | > 100 µM (inactive) | > 100 µM (inactive) | > 100 µM (inactive) | > 100 µM (inactive) | 99.5 µM (inactive) | > 100 µM (inactive) | > 100 µM (inactive) | 75 µM (inactive) | 66.1 µM (inactive)
10 | N=C(N)NS(=O)(=O)c1ccc(NNc2c3ccccc3nc3c(C(=O)Nc4ccc(S(N)(=O)=O)cc4)cccc23)cc1 | 19.7 µM (inactive) | 76.6 µM (inactive) | 27.3 µM (inactive) | > 100 µM (inactive) | 5.37 µM (inactive) | 19.5 µM (inactive) | 52.7 µM (inactive) | 8.47 µM (inactive) | 4.49 µM (inactive) | 15.1 µM (inactive) | 8.24 µM (inactive) | 68.1 µM (inactive) | > 100 µM (inactive) | 9.02 µM (inactive) | 72.8 µM (inactive) | 76 µM (inactive) | > 100 µM (inactive) | 10.4 µM (inactive) | 36.1 µM (inactive) | 28.9 µM (inactive)
11 | CC(=O)N1C(C(=O)NN2CCOCC2)CSC1c1ccccc1 (centres undefined) | > 100 µM (inactive) | > 100 µM (inactive) | > 100 µM (inactive) | > 100 µM (inactive) | > 100 µM (inactive) | > 100 µM (inactive) | > 100 µM (inactive) | > 100 µM (inactive) | > 100 µM (inactive) | > 100 µM (inactive) | > 100 µM (inactive) |  | > 100 µM (inactive) | > 100 µM (inactive) | > 100 µM (inactive) | > 100 µM (inactive) | > 100 µM (inactive) | > 100 µM (inactive) | > 100 µM (inactive) | > 100 µM (inactive)
12 | Nc1ccccc1.O=P(O)(O)c1ccccc1 | > 100 µM (inactive) | > 100 µM (inactive) | > 100 µM (inactive) | > 100 µM (inactive) | > 100 µM (inactive) | > 100 µM (inactive) | > 100 µM (inactive) | > 100 µM (inactive) | > 100 µM (inactive) | > 100 µM (inactive) | > 100 µM (inactive) | > 100 µM (inactive) | > 100 µM (inactive) | > 100 µM (inactive) | > 100 µM (inactive) | > 100 µM (inactive) | > 100 µM (inactive) | > 100 µM (inactive) | > 100 µM (inactive) | > 100 µM (inactive)
13 | C/C=C/COc1cc(NC(=S)c2ccoc2C)ccc1OC |  | > 100 µM (inactive) | 48.9 µM (inactive) | 97.1 µM (inactive) | > 100 µM (inactive) | > 100 µM (inactive) |  | > 100 µM (inactive) | 43.3 µM (inactive) | 16.7 µM (inactive) | > 100 µM (inactive) | > 100 µM (inactive) | 61.1 µM (inactive) | > 100 µM (inactive) | > 100 µM (inactive) | > 100 µM (inactive) | 49.3 µM (inactive) | > 100 µM (inactive) | 57.9 µM (inactive) | > 100 µM (inactive)
14 | C/C=C1/CC(C)C(C)(O)C(=O)OCC2C(O)CN3CCC(OC1=O)C23 (centres undefined) | > 100 µM (inactive) | > 100 µM (inactive) | > 100 µM (inactive) | > 100 µM (inactive) | > 100 µM (inactive) | > 100 µM (inactive) | > 100 µM (inactive) | > 100 µM (inactive) | > 100 µM (inactive) | > 100 µM (inactive) | > 100 µM (inactive) |  | > 100 µM (inactive) | > 100 µM (inactive) | > 100 µM (inactive) | > 100 µM (inactive) | > 100 µM (inactive) | > 100 µM (inactive) | > 100 µM (inactive) | > 100 µM (inactive)
